Laboratory results: patent publication US6753459B2, “Transgenic plants and methods for production thereof” (National Research Council of Canada, priority 1998, dated 2004)

What was measured:
[1] = system: Brassica napus hypocotyl explants (AG019, altered oil profiles); assay: Brassica napus transformation, NAA in callusing and recovery media; assay type: cell-based; conditions: NAA added to callusing and recovery media; Brassica napus with altered oil profiles
Procedure: After co-cultivation, the cells are […] to callusing and recovery media for 7 days. Explants are then placed on selection medium containing macro and micro nutrients, vitamins and growth regulators which induce shoot formation. The selection medium also contains a bacteriocide, for example carbenicillin. Preferably, it also contains a selection agent. The cells are grown on the selection medium until shoots (putative transformants) develop. […] To enhance regeneration, any shoots which develop are transferred on a regular basis to fresh selection media. Plantlets are placed on a shoot elongation media and finally a rooting media.
A single colony of Agrobacterium containing the plant transformation vector construct is transferred to AB minimal medium (Watson et al., 1975) for 48 hr at 28° C., which gives at approx. density of 6×10^8 cfu/mL. Hypocotyls are harvested from the germinated seeds and transferred to the Pre-Culture medium (MMOM, 3% (w/v) sucrose, 5.0 mg/L BAP, 0.7% (w/v) agar, and NAA 0.1 mg/L, pH 5.8) and incubated for 3 days under the TC conditions described above. Hypocotyl explants are then transferred from the Pre-Culture medium to the AB minimal medium containing the Agrobacterium strain of interest and incubated for at least 2 min. […]

[2] = system: Non-transformed segregants; assay: In vitro seed germination in the presence of NAM and NPA, non-transformed segregants; assay type: in vivo, Brassica napus; conditions: germinated in vitro in the presence of NAM and the auxin transport inhibitor NPA
Excerpt: (§1) Oncogene 2 can be used as a selectable marker in seed germination and embryo rescue in vitro assays, allowing for an even earlier determination of the presence of the transformation vector in segregating populations. […] The in vitro assay reduces the time and physical space (e.g. number of plants in growth chambers or under cultivation) required to identify homozygous transgenic lines, and the embryo rescue method allows selection and recovery of transformed seedlings which reduces generation to generation cycle time a breeding program.
(§2) Non-transformed segregants grew normally. […] The presence of the transformation vector in these plants was confirmed as above.

Non-transformed plants [3] = assay: NAM spray of non-transformed Brassica napus plants; assay type: in vivo; conditions: 200 ug/mL NAM with 0.1% Tween 20, sprayed to runoff
Excerpt: (§3) Transformed Brassica napus plants containing the construct pJH 125 (35S oncogene 2) described above are recovered and tested using standard analysis to determine the presence of the inserted vector. […] Plants were sprayed to runoff using a pressurized sprayer. […] Non-transformed plants are unaffected by the treatment.

[4] = system: plants from JH 2984 and JH 2973 transformation events (pJH 125); assay: NAM as scorable marker agent in segregating populations JH 2984 and JH 2973; assay type: in vivo, Brassica napus; conditions: NAM 1 mg/mL at the 2-3 leaf stage; 24 hours after application
Excerpt: In this example, 20 plants from JH 2984 and JH 2973 transformation events were planted. These transgenic varieties were segregating 3:1 for the inserted plant transformation vector pJH 125. […] These plants were subjected to PCR analysis for the presence of the transformation vector.

[5] = system: Transformed Brassica napus plants containing the construct pJH 121; assay: NAM spray of transformed Brassica napus plants containing pJH121; assay type: in vivo; conditions: 200 ug/mL NAM with 0.1% Tween 20, sprayed to runoff at three-four leaf stage; 25 days after spraying
Excerpt: (§4) Transformed Brassica napus plants containing the construct pJH 121 described above are recovered and tested using standard analysis to determine the presence of the inserted vector. […] Plants were sprayed to runoff using a pressurized sprayer.

[6] = system: Transgenic seedlings from JH2973 and JH2984 (pJH 125); assay: In vitro seed germination in the presence of NAM and NPA, transgenic seedlings; assay type: in vivo, Brassica napus
Excerpt: as §1, §2

Non-transformed plants [7] = assay: NAM spray of non-transformed tobacco plants; assay type: in vivo; conditions: 200 ug/mL NAM with 0.1% Tween 20, sprayed to runoff
Excerpt: Transformed tobacco plants containing the pJH 121 construct described above are recovered and tested using standard analysis to determine the presence of the inserted vector. […] Plants were sprayed to runoff using a pressurized sprayer. […] Non-transformed plants are unaffected by the treatment.

[8] = system: Transformed Brassica napus plants containing the construct pJH 125 (35S oncogene 2); assay: NAM spray of transformed Brassica napus plants containing pJH125; assay type: in vivo; conditions: 200 ug/mL NAM with 0.1% Tween 20, sprayed to runoff
Excerpt: as §3

[9] = system: Plants without the oncogene 2; assay: Spray screen, plants without the oncogene 2; assay type: in vivo; conditions: sprayed with formulated mixture
Procedure: A simple procedure is provided to screen for transgenic plants expressing the oncogene 2. Plant populations are sprayed with the formulated mixture of napthalene acetamide. […] Plants without the oncogene 2 are unaffected. Plants which have been affected are selected. These recover within 72 hours and continue to grow and set seed. This phenotypic response is transmitted to subsequent generations.

[10] = system: transgenic plants expressing the oncogene 2; assay: Spray screen for transgenic plants expressing the oncogene 2; assay type: in vivo
Excerpt: A simple procedure is provided to screen for transgenic plants expressing the oncogene 2. […] Plants which have been affected are selected.

non-transgenic varieties = assay: NAM spray of non-transgenic Brassica napus varieties; assay type: in vivo; conditions: 200 ug/mL NAM with 0.1% Tween 20, sprayed to runoff; 25 days after spraying
Excerpt: as §4

In the case of `O=C(O)Cc1cccc2ccccc12` [NAA, napthalene acetic acid], the “formation of transgenic shoots” value [1] is reported as “greatly increases the formation of transgenic shoots”.

For `NC(=O)Cc1cccc2ccccc12` [NAM, napthalene acetamide], the “growth of non-transformed segregants” value [2] was “grew normally”, the “effect of treatment on non-transformed plants” value (Non-transformed plants [3]) was “unaffected” and the “visual phenotype of putative transgenics (confirmed by PCR)” value [4] was “twisted leaves”. The “growth of transgenic plants” value [5] was “remained stunted in growth”, the “recovery of putative transgenic seedlings” value ([6]; after transfer to non-selective media) was “recovered and grew normally” and the “phenotype of transgenic seedlings” value ([6]; germinated in vitro in the presence of NAM and the auxin transport inhibitor NPA) was “stunted seedlings, small cotyledons, stunted and swollen roots and callus at the root/shoot junction”. For the same compound, the “effect of treatment on non-transformed plants” value (Non-transformed plants [7]) was “unaffected”, the “visual phenotype of transformed plants” value ([8]; 2 days after spraying) was “leaves are drooping and the leaf margins curling” and the “visual phenotype of transformed plants” value ([8]; within 5 days) was “leaves are twisted and the plant shows typical auxin toxicity”. The “effect on plants without the oncogene 2” value [9] was “unaffected”, the “visual phenotype of transgenic plants” value ([10]; sprayed with formulated mixture, within 24 hours) was “epinasty and obvious visual phenotypic changes” and the “time to recovery of affected plants” value ([10]; sub-lethal spray, plants continue to grow and set seed) was at most 72 h. For the same compound, the “growth of non-transgenic varieties” value (non-transgenic varieties) was “grew normally and flowered”.
